# Patent US5696276A, “Process for preparing 5,8-dihydroxynaphthoquinone derivatives, novel 5,8-dihydroxynaphthoquinone derivatives and their use as anticancer agent” (Kuhnil Pharmaceutical Co., Ltd., priority 1993, dated 1997)
# Assays:
# Type in all cases: cell-based
# [1] = system: K-562 cells; assay: Cytotoxic activity against K-562 cells; details: Homo sapiens; K562 cells, 48 hours, 37° C.; read-out: ED50, cytotoxic activity against K562
# Experimental: As in the test for the cytotoxic activity against L1210 cells, the test samples were dissoved in ethanol or dimethylsulfoxide in a certain concentration. 0.1 ml of the sample solution was mixed with 0.9 ml of a fresh medium to prepare the dilutions. To each two test tubes having a screw cap were added 100, 50, 25 μl, respectively, of the sample dilutions by means of a micropipet. To each test tube for the test group and the control group (2√n: n=number of the samples) was added 5 ml of the dilutions of HL-60 cells and K-562 cells which were cultured and activated before 24 hours from the beginning of experiment and then diluted in a concentration of 1×10^5 cells/mi. All test tubes were cultured for 48 hours in a CO2 incubator at 37° C. and then the number of cells was counted using a haemacytometer.
# (§1) The ED50 value is defined as a concentration (μg/ml) of the sample which inhibits the growth of cancer cells by 50% of the control group and determined according to a method described in NIC's mannual (NIC=National Cancer Institue, U.S.A.). The growth rate Y(%) of cells in the presence of the test sample in each concentration was calculated according to the followign equation: […]
# (§2) In the above equation, T means the average cell number per ml in the test group after incubation for 48 hours in the presence of the test samples in each concentration, C means the average cell number per ml in the control group after incubation for 48 hours, and Co means the average cell number per ml in the control group at the beginning of incubation. The Y(%) value at each concentration and log10 value of each concentration were obtained and the regression curve was constructed according to the following equation from those obtained values. In this case, when all the Y(%) value obtained at each concentration is greater than 55% or lower than 45%, the experiment was repeatedly conducted.
# (§3) To construct the regression curve Y=A+BX the values A and B were obtained using the following equation. [formula]
# (§4) In the above, the value N is the number of selected points which is greater than 2 and lower than, or identical with, the number of cencentration of the test sample, Xi is log(concentration) i, and Yi is the growth ratio at (concentration)i. The value of ED50 was obtained for those obtained slope and intercept.
# [2] = system: L1210 cells; assay: Cytotoxic activity against L1210 cells; details: Mus musculus; L1210 cells, 48 hours, 37° C.; read-out: ED50, cytotoxic activity against L1210
# Experimental: To obtain L1210 cells in a logarithmic phase for cytotoxic activity test, in a 250 ml Erlenmeyer flask with a screw cap including Fisher medium warmed to 36° to 37° C. L1210 cells were adjusted to a concentration of 2-3×10^5 cells/ml and then cultured, before 24 hours from the beginning of experiment. Then, the culture solution thus obtained was suspended to prepare a L1210 cell suspension having a concentration of about 0.8-1.0×10^6 cells/ml. Test sample was dissoved in ethanol or dimethylsulfoxide in a certain concentration just before the experiment. 0.1 ml of the sample solution was diluted 10 times with 0.9 ml of a fresh medium. To each screw-capped test tube were added 100, 50, 25 μl, respectively, of the sample dilutions and then added 5 ml of the cell suspension (5×10^4 cells/ml) prepared above to use as the test group. To the test tubes for the control group (2√n: n=number of the samples), only 5 ml of the cell suspension was added. All test tubes were cultured for 48 hours in a CO2 incubator at 37° C. and then the number of cells was counted using a haemacytometer.
# as §1, §2, §3, §4
# [3] = system: A549 cancer cells; assay: Cytotoxic activity against A549 cancer cells (sulforhodamin B method); details: Homo sapiens; A549 cells, SRB method, 48 hours; read-out: ED50, cytotoxic activity against A549
# Experimental: The cytotoxic activity against A549 cancer cells was determined using a method for measuring sulforhodamin B (SRB), which was developed in the year 1989 by NIC for measuring anticancer activity of the drug in vitro. For the experiment, cells under subculturing were separated from the attached surface with trypsin-CDTA solution and then dispensed into a 24-well flat-bottom microplate (Falcon) so that the number of cells per well is 8×10^4 (A549). The microplate was incubated in a CO2 incubator for 24 hours to attach the dispensed cells to bottom. The medium was removed with aspirator. Then, 100 μl of the solution of the test compounds diluted in a log-dose of 6 kinds of concentration was added to each well containing cells, in a multiple of 3. The microplate was incubated for further 48 hours. In addition, the diluted solution of the test compounds above was filtered through a 0.22 μm filter, before addition to the cells, to keep the experiment under sterilized condition. The cells were incubated with the test compounds for 48 hours and then the medium was removed from each well. 100 μl of 10% trichloroacetic acid (TCA) was added to each well and then the plate was allowed to stand at 4° C. for one hour to fix the cells to the bottom of plate. After fixing the cells, the plate was washed 5 to 6 times with water to completely remove any remaining TCA solution and then dried at room temperature until water is no longer present. To the completely dried plate was added the dying solution of 0.4% SRB dissolved in 1% acetic acid in an amount of 250 μl per well to stain the cells for 30 minutes and then the plate was washed again 5 to 6 times with 1% acetic acid solution to remove the remaining SRB which is not bound to the cells. The stained cell plate was dried again at room temperature. Then, the dying solution was carefully dissolved in a certain amount of 10 mM Tris so that the O.D. value in the control group at 520 nm is 0.8-1.0 Å (optical density), and the optical density at 520nm was determined. The ED50 value was obtained from the determined optical density. To calculate the activity of the drug against cancer cells, the number of cells (Tz) at the beginning of the addition of drug, the number of cells (C) after incubation with the medium in the absence of drug for 48 hours and the number of cells (T) after incubation in the presence of drugs at each concentration for 48 hours were determined.
# The anticancer activity of the test compounds was determined form the following equations. Specifically, in the […] the equation (T-Tz)/(C-Tz)×100 was used and in the case of Tz<T the equation (T-Tz)/Tz×100 was used. Then the IC50 value wich is the concentration of drug which inhibits the growth of cancer cells by 50% was calcualted from the above calculated values using a data regressive function of LOTUS programme and the cytotoxic activities of the test compounds were compared with each other.
SMILES,IC50 [1] [µg/mL],IC50 [2] [µg/mL],IC50 [3] [µg/mL]
"CCCCCCCCCCCCC(OC(=O)CCC)C1=CC(=O)c2c(O)ccc(O)c2C1=O (stereo not drawn) [2-(1-butanoyloxytridecyl)-5,8-dihydroxy-1,4-naphthoquinone]",2.7,0.6,> 20
"CCCCCCCCCCCCOC(CCC(C)C)C1=CC(=O)c2c(O)ccc(O)c2C1=O (stereo not drawn) [2-(1-dodecyloxy-4-methylpentyl)-5,8-dihydroxy-1,4-naphthoquinone]",> 20,> 20,> 20
"CCCCCCCCCCCCOC(CCC(C)C)C1=CC(=O)c2c(OC)ccc(OC)c2C1=O (stereo not drawn) [2-(1-dodecyloxy-4-methylpentyl)-5,8-dimethoxy-1,4-naphthoquinone]",3.7,6.3,4.8
"CCOC(CCC(C)C)C1=CC(=O)c2c(OC)ccc(OC)c2C1=O (stereo not drawn) [2-(1-ethoxy-4-methylpentyl)-5,8-dimethoxy-1,4-naphthoquinone]",1.5,0.01,3
"CCCCCCCOC(CCC(C)C)C1=CC(=O)c2c(O)ccc(O)c2C1=O (stereo not drawn) [2-(1-heptyloxy-4-methylpentyl)-5,8-dihydroxy-1,4-naphthoquinone]",0.2,0.8,2.4
"CCCCCCCOC(CCC(C)C)C1=CC(=O)c2c(OC)ccc(OC)c2C1=O (stereo not drawn) [2-(1-heptyloxy-4-methylpentyl)-5,8-dimethoxy-1,4-naphthoquinone]",6.4,3.1,4.7
"CCCCCCCCCC(OC(=O)CCCCC)C1=CC(=O)c2c(O)ccc(O)c2C1=O (stereo not drawn) [2-(1-hexanoyloxydecyl)-5,8-dihydroxy-1,4-naphthoquinone]",1.1,0.5,13
"CCCCCCCCCCCCC(OC(=O)CCCCC)C1=CC(=O)c2c(O)ccc(O)c2C1=O (stereo not drawn) [2-(1-hexanoyloxytridecyl)-5,8-dihydroxy-1,4-naphthoquinone]",> 20,1.5,> 20
"CCCCCCCCCC(O)C1=CC(=O)c2c(O)ccc(O)c2C1=O (stereo not drawn) [2-(1-hydroxydecyl)-5,8-dihydroxy-1,4-naphthoquinone]",0.3,0.1,0.5
"CCCCCCCCCC(O)C1=CC(=O)c2c(OC)ccc(OC)c2C1=O (stereo not drawn) [2-(1-hydroxydecyl)-5,8-dimethoxy-1,4-naphthoquinone]",1.6,1.4,9.2
"CCCCCC(O)C1=CC(=O)c2c(O)ccc(O)c2C1=O (stereo not drawn) [2-(1-hydroxyhexyl)-5,8-dihydroxy-1,4-naphthoquinone]",0.02,0.03,1.1
"CCCCCC(O)C1=CC(=O)c2c(OC)ccc(OC)c2C1=O (stereo not drawn) [2-(1-hydroxyhexyl)-5,8-dimethoxy-1,4-naphthoquinone]",0.6,0.3,0.9
"CCCCCCCC(O)C1=CC(=O)c2c(O)ccc(O)c2C1=O (stereo not drawn) [2-(1-hydroxyoctyl)-5,8-dihydroxy-1,4-naphthoquinone]",0.2,0.07,0.4
"CCCCCCCC(O)C1=CC(=O)c2c(OC)ccc(OC)c2C1=O (stereo not drawn) [2-(1-hydroxyoctyl)-5,8-dimethoxy-1,4-naphthoquinone]",2.1,1,7.5
"CCCCC(O)C1=CC(=O)c2c(O)ccc(O)c2C1=O (stereo not drawn) [2-(1-hydroxypentyl)-5,8-dihydroxy-1,4-naphthoquinone]",0.08,0.04,0.5
"CCCCC(O)C1=CC(=O)c2c(OC)ccc(OC)c2C1=O (stereo not drawn) [2-(1-hydroxypentyl)-5,8-dimethoxy-1,4-naphthoquinone]",1.1,0.1,6.4
"CCCCCCCCCCCCC(O)C1=CC(=O)c2c(OC)ccc(OC)c2C1=O (stereo not drawn) [2-(1-hydroxytridecyl)-5,8-dimethoxy-1,4-naphthoquinone]",2.3,1.8,2.8
"COc1ccc(OC)c2c1C(=O)C=C(C(CCC(C)C)OC)C2=O (stereo not drawn) [2-(1-methoxy-4-methylpentyl)-5,8-dimethoxy-1,4-naphthoquinone]",2.1,0.2,5.6
"CCCCCCCCCC(OC(=O)CCCCCCC)C1=CC(=O)c2c(O)ccc(O)c2C1=O (stereo not drawn) [2-(1-octanoyloxydecyl)-5,8-dihydroxy-1,4-naphthoquinone]",> 20,0.9,> 20
"CCCCCOC(CCC(C)C)C1=CC(=O)c2c(O)ccc(O)c2C1=O (stereo not drawn) [2-(1-pentyloxy-4-methylpentyl)-5,8-dihydroxy-1,4-naphthoquinone]",0.2,0.3,1.3
"CCCCCOC(CCC(C)C)C1=CC(=O)c2c(OC)ccc(OC)c2C1=O (stereo not drawn) [2-(1-pentyloxy-4-methylpentyl)-5,8-dimethoxy-1,4-naphthoquinone]",3,2.6,7.8
"COc1ccc(OC)c2c1C(=O)C=C(C(CCC(C)C)OCCC(C)C)C2=O (stereo not drawn) [2-[1-(3-methylbutoxy)-4-methylpentyl]-5,8-dimethoxy-1,4-naphthoquinone]",2.3,2.5,3.3
